Measured values published in patent US10426813B2, “Method to enhance endurance” (KYOWA HAKKO BIO CO., LTD., priority 2009, dated 2019).
Entries after “also recorded” stand apart in the source; their conditions may differ. Peptide text beside a SMILES is read from it.

Columns and labels:
[1] = Plasma glutamine concentration during hydration stress and endurance exercise; format: in vivo, human
From the text: (§1) On four of the five subsequent visits to the HPL, subjects dehydrated to 2.5% of their baseline body mass. On the occasion that a dehydration protocol was not employed, subjects reported to the HPL in a euhydrated state to provide a baseline blood draw and perform the exercise protocol. This trial (T1) provided baseline performance data for how subjects performed in optimal conditions without hydration stress. All performance comparisons were made to this trial. In one trial (T2) subjects achieved their goal weight (−2.5% of baseline body weight) and rested in a recumbent position for 45 minutes before commencing the exercise session. In the subsequent three trials subjects reached their goal weight (−2.5% of baseline body mass) and then rehydrated to −1.5% of their baseline body mass by drinking either water (T3) or two different doses (T4 and T5) of the alanyl-glutamine (ALA-GLU) supplement (0.05 g·kg^−1 and 0.2 g·kg^−1, respectively). During the hydration trials (T3-T5), the exercise protocol began 45 minutes following reaching their goal weight. During this time frame, subjects were rehydrated. The order of the trials was randomly determined.
(§2) Subjects consumed the supplement or placebo (water) following the dehydration protocol as part of their rehydration to −1.5% of their baseline body mass. The L-alanyl-L-glutamine supplement (0.2 g·kg^−1 or 0.05 g·kg^−1) (Kyowa Hakko USA, New York, N.Y.) was mixed with water and was indistinguishable in appearance and taste from the placebo.
A baseline (BL) blood draw occurred during T1. No other blood was drawn during that trial. The BL blood sample was drawn following a 15-min equilibration period prior to exercise. […]
Hemoglobin was analyzed in triplicate from whole blood using the cyanmethemoglobin method (Sigma Diagnostics, St. Louis, Mo.). Hematocrit was analyzed in triplicate from whole blood via microcentrifugation (IEC micro-MB centrifuge, Needham, Mass.) and microcapillary technique. Plasma volume shifts following the workout were calculated using the formula of Dill & Costill (1974). […]

[2] = Time to exhaustion test on cycle ergometer at 75% VO2 max after dehydration and rehydration; format: in vivo, human
From the text: as §1
On the night before testing (5 p.m.), subjects reported to the HPL for weighing and urine specific gravity measures to ascertain that subjects were euhydrated. Subjects were then instructed to not consume any food or water until the next day when they reported back to the HPL (7 a.m.). […] On the morning of trials T2-T5, subjects reporting to the HPL were weighed and began the active dehydration protocol to achieve the desired weight loss. The active dehydration protocol required subjects to walk on a motorized treadmill at 3.4 mi·h^−1 and at a 2% incline. Subjects were fully clothed in a training suit (long cotton heavy weight fleece sweat pants and top). Nude body weight, heart rate, and rating of perceived exertion were monitored at 20-minute increments. […] At the end of the dehydration period, a urine specimen and blood samples were obtained. Dehydration was verified by measuring urine specific gravity and both urine and plasma osmolality. The time necessary to reach the goal body mass (−2.5% weight loss) was 62.5±44.2 min.
as §2
After dehydration and rehydration (except during trial T2), subjects began the exercise protocol. Subjects exercised at a workload that elicited 75% of their VO2 max on a cycle ergometer. Subjects were encouraged to give their best effort during each trial, and were verbally encouraged throughout each exercise trial. Oxygen consumption, minute ventilation, respiratory exchange ratio, and heart rate were measured continuously. Heart rate and blood pressure were recorded before and at the conclusion of exercise. Time to exhaustion was determined as the time that the subject could no longer maintain the workload and/or reach volitional exhaustion.

Plasma glutamine concentration ([1]; T4, 0.05 g/kg, compared to T3 (water only)): No differences
AUC of plasma glutamine concentration ([1]; T5, 0.2 g·kg^−1, compared to the other experimental trials): significantly higher
Structure (SMILES): C[C@H](N)C(=O)N[C@@H](CCC(N)=O)C(=O)O [alanyl-glutamine, L-alanyl-L-glutamine] (H-Ala-Gln-OH)
Plasma glutamine concentration ([1]; T5, 0.2 g·kg^−1, at RHY and IP, compared to T2-T4): significantly higher; also recorded: significantly increased
Δ performance: time to exhaustion (difference to T1) ([2]; T4, 0.05 g·kg^−1, compared to T2 (dehydrated, no rehydration)): significantly greater times to exhaustion
trend of inhibiting the decrease in duration of exercise endurance ([2]; T4, 0.05 g·kg^−1, compared to T3 (water only)): even more pronounced
Δ performance: time to exhaustion (difference to T1) ([2]; T5, 0.2 g·kg^−1, compared to T2 (dehydrated, no rehydration)): significantly greater times to exhaustion
trend of inhibiting the decrease in duration of exercise endurance ([2]; T5, 0.2 g·kg^−1, compared to T3 (water only)): even more pronounced
effect on endurance ([2]; overall conclusion, independent of increases in plasma glutamine concentration): endurance enhancing effect
